# Data from article PMC10959927, “Platinum iodido drugs show potential anti-tumor activity, affecting cancer cell metabolism and inducing ROS and senescence in gastrointestinal cancer cells” (Communications Biology, 2024).
# Where “and” joins values, the source holds several entries; their conditions need not be identical. Equal values may be shown once.
# Key:
# Format in all cases: cell-based, human
# AGS cells [1] = test: Clonogenic (CFU) assay with or without NAC; conditions: 10 days
# Experimental: (§1) For the clonogenic assay we used two different approaches. […] Then, cells were cultured in a 6-well plate at a very low concentration (2 × 10^3 cells per well) and incubated for 10 days. […] To evaluate the role of ROS in cell proliferation, we supplemented the growth medium with 0.5 mM NAC. After 10 days, the cells were fixed with 1% glutaraldehyde and stained with 0.1% crystal violet. The number of colonies was quantified directly and reflected as CFUs: Colony Forming Units.
# MKN45 cells [2] = test: Clonogenic (CFU) assay with or without NAC; conditions: 10 days
# Experimental: as §1
# PANC1 cells [3] = test: ROS detection by confocal microscopy (DHE, MitoSox); conditions: PANC1, 1 h treatment; H2O2 200 µM, CDDP 10 µM, I5 20 µM, I6 20 µM
# Experimental: Tumor cells were seeded at a density of 3 × 10^5 cells in 15 µm 8-well IBIDI plates and incubated overnight. […] Subsequently, cells were stained with 10 μM of dihydroethidium (DHE, cytosolic O2^·- probe, Sigma-Aldrich) or with 5 μM of Mitosox (mitochondrial O2^·- probe, Sigma-Aldrich) for 15–30 min[79] and then visualized on a confocal microscope (Confocal LSM 710 Zeiss, Biomedical Research Institute Alberto Sols, IIBm-CSIC-UAM, Madrid, Spain). The image analysis was realized using the software program Image J.
# PANC1 cells [4] = test: Clonogenic (CFU) assay after 1, 3, 24 h pre-treatment
# Experimental: as §1
# PANC1 cells [5] = test: Western blotting (p-p53, p-JNK, p-p38, p-ERK, p-CHK1/2, Mcl1, BID, BAX); conditions: for fold change p-ERK vs Tubulin / fold change p-JNK vs Tubulin / fold change p-p38 vs Tubulin / fold change p-p53 vs Tubulin: PANC1, Fig. 4A, replicate values
# Experimental: (§2) Total protein extracts were obtained by adding the lysis buffer: 25 mM HEPES pH 7.5, 0.3 M NaCl, 1.5 mM MgCl2, 0.2 mM EDTA, 0.5 mM DTT, 20 mM β-glicerophosphate, 0.1 mM Na3VO4, 0.1% triton X-100; in the presence of protease inhibitors. Twenty μg of protein per sample were loaded and resolved using 8%, 10% or 15% SDS-PAGE polyacrylamide gels, and then transferred onto PVDF membranes, followed by immunodetection using appropriate antibodies, purchased from Santa Cruz Technology: Mcl-1 (sc-819), Cell Signaling Technology: BIM, BID, BAX (#9942), p-p38 (1:2000, #4631), p-p53^ser15 (#9284), p-ERK1/2 (1:2000, #9106), p-CHK1^ser345 and p-CHK2^ser19 (#9931), Promega Corporation-Spain: p-JNK (#V7932), or Sigma-Aldrich: α-tubulin (1:10000, #TP026). Unless indicated, all antibodies were diluted 1:1000. Secondary antibodies conjugated with horseradish peroxidase were purchased from BioRad, and chemiluminescence detection was performed using ECL (Santa Cruz Biotechnology).
# AGS cells [6] = test: as above; conditions: for fold change p-ERK vs Tubulin / fold change p-JNK vs Tubulin / fold change p-p38 vs Tubulin / fold change p-p53 vs Tubulin: Fig. 4A, replicate values; for fold change BID full length vs Tubulin / fold change MCL1 vs Tubulin: Fig. S3B
# Experimental: as §2
# MKN45 cells [7] = test: Immunofluorescence of γ-H2AX foci; conditions: Fig. 3B; for foci/cell, number of cells in class: cell count
# Experimental: Cells (7 × 10^4) were seeded on 20 mm coverslips. […] Coverslips were incubated for 1 h with the primary antibody (Cell Signaling: H2AX Ser139 (#2595) and 53BP1 (#4937)) at room temperature, followed by a 1 h incubation with the appropriate secondary antibody. DNA was stained with DAPI. Fluorescence microscopy was performed using a NIKON Eclipse 90i. The image analysis was performed using the software program Nikon NIS-Elements and Image J.
# AGS cells [8] = test: SA-β-Gal histochemical staining; conditions: Fig. S4A
# Summary of the method: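 AGS, MKN45 or PANC1 cells (5×10^4) were seeded in 24-well plates overnight before treatment. For flow cytometry, cells were PFA-fixed and stained with CellEvent Senescence Green probe (1:500), read at ex 488/em 530/30 nm. For histochemistry, cells were treated 3 h, then kept 24 h in fresh medium before SA-β-Gal staining.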
compound,measurement,setting,value
"CC(C)[NH][Pt@SP3]([I])([I])[NH]C(C)C [I5, trans-[PtI2(isopropylamine)2]]","colonies (CFUs), mean ± SD","AGS cells [1]; AGS + NAC 0.5 mM, IC25 concentration",106 ± 46
same,"colonies (CFUs), mean ± SD","AGS cells [1]; AGS + NAC 0.5 mM, IC50 concentration",2.3 ± 2.5
same,"colonies (CFUs), mean ± SD","AGS cells [1]; AGS, IC25 concentration, no NAC",0
same,"colonies (CFUs), mean ± SD","AGS cells [1]; AGS, IC50 concentration, no NAC",0
same,"colonies (CFUs), mean ± SD","MKN45 cells [2]; MKN45 + NAC 0.5 mM, IC25 concentration",99 ± 6
same,"colonies (CFUs), mean ± SD","MKN45 cells [2]; MKN45 + NAC 0.5 mM, IC50 concentration",52 ± 21
same,"colonies (CFUs), mean ± SD","MKN45 cells [2]; MKN45, IC25 concentration, no NAC",0
same,"colonies (CFUs), mean ± SD","MKN45 cells [2]; MKN45, IC50 concentration, no NAC",0
same,"DHE fluorescence intensity (per cell), cytosolic O2•−",PANC1 cells [3],90.3731 and 85.3678 and 75.6942 and 74.4248 and 73.3485 and 72.8941
same,CFUs,"PANC1 cells [4]; PANC1, 1 h pre-treatment at IC50, colonies after 10 days",176 and 164 and 136
same,CFUs,"PANC1 cells [4]; PANC1, 3 h pre-treatment at IC50, colonies after 10 days",104 and 76 and 68
same,activation of p53 (p-p53 western blot),"PANC1 cells [5]; PANC1, IC50, 1, 3, 6 and 24 h",did not activate p53
same,"phosphorylation of CHK1/2 (DDR pathway, western blot)","PANC1 cells [5]; PANC1, IC50, 1, 3, 6 or 24 h",did not activate
same,fold change BAX vs Tubulin,"PANC1 cells [5]; PANC1, time 1 h, Fig. S3B",1.558 fold change and 0.8186 fold change and 1.264 fold change
same,fold change BAX vs Tubulin,"PANC1 cells [5]; PANC1, time 3 h, Fig. S3B",1.103 fold change and 1.1737 fold change and 1.2 fold change
same,fold change BAX vs Tubulin,"PANC1 cells [5]; PANC1, time 6 h, Fig. S3B",1.097 fold change and 1.226 fold change and 1.154 fold change
same,fold change BAX vs Tubulin,"PANC1 cells [5]; PANC1, time 24 h, Fig. S3B",1.153 fold change and 1.646 fold change and 1.378 fold change
same,fold change BID full length vs Tubulin,"PANC1 cells [5]; PANC1, time 24 h, Fig. S3B",0.5478 fold change and 0.965 fold change and 0.596 fold change
same,fold change MCL1 vs Tubulin,"PANC1 cells [5]; PANC1, time 24 h, Fig. S3B",1.638 fold change and 3.054 fold change and 2.481 fold change
same,fold change p-ERK vs Tubulin,PANC1 cells [5]; Time 1 h,5.052 fold change and 7.4391 fold change and 5.41 fold change
same,fold change p-JNK vs Tubulin,PANC1 cells [5]; Time 1 h,2.895 fold change and 2.7686 fold change and 4.719 fold change
same,fold change p-p38 vs Tubulin,PANC1 cells [5]; Time 1 h,2.229 fold change and 1.109 fold change and 1.075 fold change
same,fold change p-p53 vs Tubulin,PANC1 cells [5]; Time 1 h,0.74 fold change and 1.11 fold change and 0.95 fold change
same,fold change p-ERK vs Tubulin,PANC1 cells [5]; Time 3 h,4.573 fold change and 11.3646 fold change and 8.3 fold change
same,fold change p-JNK vs Tubulin,PANC1 cells [5]; Time 3 h,1.5726 fold change and 2.305 fold change and 1.813 fold change
same,fold change p-p38 vs Tubulin,PANC1 cells [5]; Time 3 h,2.01 fold change and 1.474 fold change and 1.299 fold change
same,fold change p-p53 vs Tubulin,PANC1 cells [5]; Time 3 h,0.37 fold change and 1.05 fold change and 0.6 fold change
same,fold change p-ERK vs Tubulin,PANC1 cells [5]; Time 6 h,3.1087 fold change and 13.4172 fold change and 7.72 fold change
same,fold change p-JNK vs Tubulin,PANC1 cells [5]; Time 6 h,2.264 fold change and 2.75 fold change and 2.02 fold change
same,fold change p-p38 vs Tubulin,PANC1 cells [5]; Time 6 h,1.737 fold change and 1.3292 fold change and 1.51 fold change
same,fold change p-p53 vs Tubulin,PANC1 cells [5]; Time 6 h,0.46 fold change and 1.28 fold change and 0.68 fold change
same,fold change p-ERK vs Tubulin,PANC1 cells [5]; Time 24 h,0.9081 fold change and 11.3435 fold change and 3.15 fold change
same,fold change p-JNK vs Tubulin,PANC1 cells [5]; Time 24 h,0.7671 fold change and 1.164 fold change and 1.094 fold change
same,fold change p-p38 vs Tubulin,PANC1 cells [5]; Time 24 h,1.276 fold change and 1.422 fold change and 1.33 fold change
same,fold change p-p53 vs Tubulin,PANC1 cells [5]; Time 24 h,0.81 fold change and 1.22 fold change and 0.52 fold change
same,activation of p53 (p-p53 western blot),"AGS cells [6]; IC50, 1, 3, 6 and 24 h",did not activate p53
same,"phosphorylation of CHK1/2 (DDR pathway, western blot)","AGS cells [6]; IC50, 1, 3, 6 or 24 h",did not activate
same,fold change p-ERK vs Tubulin,AGS cells [6]; Time 1 h,3.337 fold change and 2.237 fold change and 6.03 fold change
same,fold change p-JNK vs Tubulin,AGS cells [6]; Time 1 h,3.178 fold change and 2.647 fold change and 2.394 fold change
same,fold change p-p38 vs Tubulin,AGS cells [6]; Time 1 h,1.6079 fold change and 2.911 fold change and 3.19 fold change
same,fold change p-p53 vs Tubulin,AGS cells [6]; Time 1 h,0.8674 fold change and 0.8424 fold change and 1.7105 fold change
same,fold change p-ERK vs Tubulin,AGS cells [6]; Time 3 h,6.263 fold change and 7.52 fold change and 5.909 fold change
same,fold change p-JNK vs Tubulin,AGS cells [6]; Time 3 h,3.912 fold change and 2.163 fold change and 1.799 fold change
same,fold change p-p38 vs Tubulin,AGS cells [6]; Time 3 h,0.8627 fold change and 3.016 fold change and 3.496 fold change
same,fold change p-p53 vs Tubulin,AGS cells [6]; Time 3 h,0.5433 fold change and 0.6274 fold change and 1.359 fold change
same,fold change p-ERK vs Tubulin,AGS cells [6]; Time 6 h,3.858 fold change and 7.71 fold change and 6.1 fold change
same,fold change p-JNK vs Tubulin,AGS cells [6]; Time 6 h,2.706 fold change and 2.4308 fold change and 2.197 fold change
same,fold change p-p38 vs Tubulin,AGS cells [6]; Time 6 h,1.573 fold change and 3.845 fold change and 3.365 fold change
same,fold change p-p53 vs Tubulin,AGS cells [6]; Time 6 h,0.4994 fold change and 0.627 fold change and 1.555 fold change
same,fold change p-ERK vs Tubulin,AGS cells [6]; Time 24 h,3.8691 fold change and 7.1 fold change and 5.002 fold change
same,fold change p-JNK vs Tubulin,AGS cells [6]; Time 24 h,3.2721 fold change and 2.291 fold change and 2.816 fold change
same,fold change p-p38 vs Tubulin,AGS cells [6]; Time 24 h,3.758 fold change and 3.606 fold change and 2.16 fold change
same,fold change p-p53 vs Tubulin,AGS cells [6]; Time 24 h,0.7787 fold change and 0.8882 fold change and 1.672 fold change
same,fold change BID full length vs Tubulin,AGS cells [6]; time 1 h,0.978 fold change and 1.383 fold change and 0.822 fold change
same,fold change BID full length vs Tubulin,AGS cells [6]; time 3 h,0.826 fold change and 0.919 fold change and 0.851 fold change
same,fold change MCL1 vs Tubulin,AGS cells [6]; time 3 h,0.354 fold change and 0.557 fold change and 0.657 fold change
same,fold change BID full length vs Tubulin,AGS cells [6]; time 6 h,0.842 fold change and 0.933 fold change and 0.854 fold change
same,fold change MCL1 vs Tubulin,AGS cells [6]; time 24 h,1.039 fold change and 1.002 fold change and 0.903 fold change
same,"foci/cell, share of cells in class (Suma 100)",MKN45 cells [7]; class 16-30 foci/cell,20
same,"foci/cell, number of cells in class",MKN45 cells [7]; class 16-30 foci/cell,5
same,"foci/cell, share of cells in class (Suma 100)",MKN45 cells [7]; class 31-45 foci/cell,24
same,"foci/cell, number of cells in class",MKN45 cells [7]; class 31-45 foci/cell,6
same,"foci/cell, share of cells in class (Suma 100)",MKN45 cells [7]; class 46-60 foci/cell,20
same,"foci/cell, number of cells in class",MKN45 cells [7]; class 46-60 foci/cell,5
same,"foci/cell, share of cells in class (Suma 100)",MKN45 cells [7]; class <15 foci/cell,16
same,"foci/cell, number of cells in class",MKN45 cells [7]; class <15 foci/cell,4
same,"foci/cell, share of cells in class (Suma 100)",MKN45 cells [7]; class >61 foci/cell,20
same,"foci/cell, number of cells in class",MKN45 cells [7]; class >61 foci/cell,5
same,Fold change % Senescence,AGS cells [8],58.06% and 57.14% and 43.1%
